Results on 5 compounds are retold here after article PMC5357154 (Cell chemical biology, 2017).

Test [1] deals with T1, caspase-1 (Homo sapiens, UniProt P29466).
T1 sequence (P29466 120-297 limits assumed): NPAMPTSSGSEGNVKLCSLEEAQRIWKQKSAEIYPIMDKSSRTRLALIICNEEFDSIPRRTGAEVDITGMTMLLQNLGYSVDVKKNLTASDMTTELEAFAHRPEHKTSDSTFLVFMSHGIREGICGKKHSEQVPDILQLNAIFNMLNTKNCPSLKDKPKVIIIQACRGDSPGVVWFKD
T1 sequence (P29466 317-404 limits assumed): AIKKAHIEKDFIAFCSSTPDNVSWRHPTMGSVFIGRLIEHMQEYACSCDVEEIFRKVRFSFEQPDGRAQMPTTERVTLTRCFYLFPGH
The test can be described thus: Caspase catalytic activity IC50 determination, caspase-1. Type of test: biochemical. The note with it: 2.5 nM enzyme, 6.5 μM WEHD substrate, tested 26.1 nM to 66 μM.

The target of test [2] is T2, caspase-3 (Homo sapiens, UniProt P42574).
T2 sequence (P42574 29-175 limits assumed): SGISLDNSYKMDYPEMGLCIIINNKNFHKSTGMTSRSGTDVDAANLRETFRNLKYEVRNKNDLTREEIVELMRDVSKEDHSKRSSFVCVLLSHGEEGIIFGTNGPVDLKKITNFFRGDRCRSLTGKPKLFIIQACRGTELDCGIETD
T2 sequence (P42574 176-277 limits assumed): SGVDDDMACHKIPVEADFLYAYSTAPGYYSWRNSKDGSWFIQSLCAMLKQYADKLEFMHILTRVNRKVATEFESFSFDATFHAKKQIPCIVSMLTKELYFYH
The test can be described thus: Caspase catalytic activity IC50 determination, caspase-3. Type of test: biochemical. The note with it: 200 nM enzyme, 3.3 μM DEVD substrate, tested 26.1 nM to 66 μM.

Test [3] addresses T3, caspase-4 (Homo sapiens, UniProt P49662).
T3 sequence (P49662 81-270 limits assumed): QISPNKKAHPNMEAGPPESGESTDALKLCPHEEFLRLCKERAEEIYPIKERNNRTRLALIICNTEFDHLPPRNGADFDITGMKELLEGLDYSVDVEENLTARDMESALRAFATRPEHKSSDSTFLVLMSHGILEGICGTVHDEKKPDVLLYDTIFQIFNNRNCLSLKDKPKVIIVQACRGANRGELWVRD
T3 sequence (P49662 290-377 limits assumed): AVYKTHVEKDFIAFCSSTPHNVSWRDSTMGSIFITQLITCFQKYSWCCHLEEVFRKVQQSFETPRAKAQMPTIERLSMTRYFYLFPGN
The test can be described thus: Caspase catalytic activity IC50 determination, caspase-4. Format: biochemical. The note with it: 1 nM enzyme, 10 μM LEHD substrate, tested 26.1 nM to 66 μM.

Test [4] concerns the target T4, caspase-5 (Homo sapiens, UniProt P51878).
T4 sequence (P51878 137-327 limits assumed): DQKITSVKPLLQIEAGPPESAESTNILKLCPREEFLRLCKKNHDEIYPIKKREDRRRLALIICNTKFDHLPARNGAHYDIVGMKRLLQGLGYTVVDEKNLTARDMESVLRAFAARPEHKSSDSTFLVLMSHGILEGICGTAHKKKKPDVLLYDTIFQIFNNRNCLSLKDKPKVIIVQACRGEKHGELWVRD
T4 sequence (P51878 347-434 limits assumed): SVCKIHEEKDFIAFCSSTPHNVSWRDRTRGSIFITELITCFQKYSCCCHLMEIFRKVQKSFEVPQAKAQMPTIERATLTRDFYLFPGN
The test can be described thus: Caspase catalytic activity IC50 determination, caspase-5. Type of test: biochemical. The following applies: 20 nM enzyme, 10 μM LEHD substrate, tested 26.1 nM to 66 μM.

The target of test [5] is T5, caspase-9 (Homo sapiens, UniProt P55211).
T5 sequence (P55211 1-315 limits assumed): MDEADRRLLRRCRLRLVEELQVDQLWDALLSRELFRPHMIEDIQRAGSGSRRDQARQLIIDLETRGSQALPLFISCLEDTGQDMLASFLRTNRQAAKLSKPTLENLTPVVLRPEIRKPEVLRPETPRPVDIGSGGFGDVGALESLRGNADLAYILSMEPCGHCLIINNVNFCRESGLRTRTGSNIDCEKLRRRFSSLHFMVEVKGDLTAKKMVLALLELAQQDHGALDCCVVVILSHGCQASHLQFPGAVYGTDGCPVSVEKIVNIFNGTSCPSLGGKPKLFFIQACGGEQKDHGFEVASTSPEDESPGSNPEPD
T5 sequence (P55211 331-416 limits assumed): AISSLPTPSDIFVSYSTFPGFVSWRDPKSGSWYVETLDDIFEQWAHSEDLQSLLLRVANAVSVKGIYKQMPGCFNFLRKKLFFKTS
The experiment in a line: Caspase catalytic activity IC50 determination, caspase-9. The note with it: 200 nM enzyme, 6.5 μM LEHD substrate, tested 26.1 nM to 66 μM. Type of test: biochemical.

Test [6] concerns the target T2, caspase-3. The experiment in a line: Caspase-3 tryptophan fluorescence quenching. Format: binding.
In test [7] the test system is caspases in HeLa and THP-1 cells. The test can be described thus: Caspase inhibition across cell culture assays. Format: cell-based, human. The following applies: NSAIDs up to 500 μM.

Turning to `CC(=O)Oc1ccccc1C(=O)O` [Aspirin], the IC50 result in test [1], in test [2], in test [3], in test [4] and in test [5] was “No activity” in each case. For the same compound, in test [6], binding was characterised by a dissociation constant (Kd) of 1290 ± 10 µM. Also, the “caspase inhibitory capability, rank order across cellular assays” value (“caspase inhibitory capability” below) in test [7] was “ineffective”.

Regarding `O=C(O)CCC(=O)c1ccc(-c2ccccc2)cc1` [Fenbufen], in test [7], the “caspase inhibitory capability” value is given as “substantial inhibitory capabilities”.

Take `CC(C)Cc1ccc(C(C)C(=O)O)cc1` (stereo not shown) [Ibuprofen]: in test [1], the IC50 result is on record as “No activity”. For the same compound, the “caspase inhibitory capability” value in test [7] was “weak inhibitors”.

Take `CC(C(=O)O)c1ccc(N2Cc3ccccc3C2=O)cc1` (stereo not shown) [Indoprofen]: in test [6], the Kd is 30 ± 2 µM. For the same compound, the “caspase inhibitory capability” value in test [7] is “substantial inhibitory capabilities”.

For the compound `COc1ccc2cc([C@H](C)C(=O)O)ccc2c1` [Naproxen], in test [7], the “caspase inhibitory capability” value was “weak inhibitors”.

The Kd is the free concentration of one partner at which half of the binding sites on the other are occupied at equilibrium, for simple one-to-one binding. A higher Kd goes with a looser complex.
